Test in all cases: NCI tumour cell line growth inhibition, 48 h
In assay [1] the test system is 786-0 renal.
In assay [2] the test system is HOP-62 NSCLC.
Assay [3] has as its system LOX IMVI melanoma.
The subject of assay [4] is OVCAR-3 ovarian.
Assay [5] relates to RPMI-8226 leukemia.
The subject of assay [6] is SF-268 CNS.
Assay [7] concerns SK-MEL-28 melanoma.
Assay [8] has as its system SK-MEL-5 melanoma.
The test system of assay [9] is SR leukemia.
Assay [10] has as its system TK-10 renal.

Data on 19 molecules can be found in PubChem BioAssay (NCI).

Each structure is given as a SMILES string. Where “and” joins values, the source holds several entries; their conditions need not be identical. Identical values can stand only once.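 These data come from cells grown in 96-well plates and exposed to compound for 48 hours at five concentrations. GI50: concentration for 50% inhibition of growth. At the TGI there is no net growth.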

As to `COc1cc(/C=N/O)nc(-c2ccccn2)c1`, the GI50 was 0.465 µM in [1]; 0.358 µM in assay [2]; 0.271 µM in assay [3]; 0.324 µM in assay [4]; 0.357 µM in assay [6]; 0.476 µM in assay [7]. In addition, the GI50 was 0.284 µM in assay [9] and 0.325 µM in [10]. Further, the TGI was 27.5 µM in assay [1]; above 69.7 µM in assay [2]; 10.8 µM in assay [3]; above 100 µM in assay [4]; above 100 µM in assay [5]; 68.2 µM in assay [6]. Moreover, the TGI in [7] is above 100 µM; in assay [8], 1.31 µM; in assay [9], 22.2 µM; in assay [10], above 100 µM.
Take `Cc1cccc2cc3ccc4ccccc4c3cc12`: the TGI in [1], in [2], in assay [3], in assay [4], in assay [5] and in assay [6] was above 100 µM in each case. In addition, the TGI in assay [7] was above 100 µM; in assay [8], 52.6 µM; in assay [9], 47.4 µM; in assay [10], above 100 µM.
On to `CCc1c(-c2coc(CC/C(C)=C/c3ccccc3)n2)oc(OC)c(C)c1=O`, for which the TGI in assay [1] is above 55.4 µM; in assay [2], above 100 µM; in assay [3], above 50.9 µM; in [4], above 100 µM; in [5] it was above 100 µM; in assay [6], above 100 µM. Besides, the TGI in assay [7] was above 100 µM; in [8], above 46.9 µM; in assay [9], 29.3 µM; in assay [10], above 100 µM.
For the molecule `COc1cc(C(=C2SCCS2)c2nccc3cc(OC)c(OC)cc23)c([N+](=O)[O-])cc1OC`, the TGI in [1], in assay [2], in assay [3], in assay [4], in assay [5] and in assay [6] was above 100 µM throughout. Moreover, the TGI in [7], in assay [8], in [9] and in assay [10] was above 100 µM in each case.
Consider `O=c1cc(-c2ccc[nH]2)[nH]c2cc3c(cc12)OCO3`, for which the TGI is above 100 µM in [1]; 93.5 µM in assay [2]; above 100 µM in assay [3]; above 100 µM in assay [4]; above 100 µM in assay [5]; above 100 µM in assay [6]. Also, the TGI in [7], in [8], in assay [9] and in assay [10] was above 100 µM throughout. In addition, the results for the GI50 in assay [4], in assay [6] and in assay [8] were 30.8 µM, above 100 µM and 7.74 µM, respectively.
With `COc1ccc(Cn2cc3c(c2-c2ccccc2)CCc2cncnc2-3)cc1`, the GI50 in assay [1] is 10.1 µM; in [2], 12 µM; in assay [3], 6.81 µM; in [4], 3.65 µM; in [5], 2.69 µM; in assay [6], 9.63 µM. Moreover, the GI50 is 8.71 µM in [7], 3.72 µM in [8], 1.46 µM in assay [9] and 8.09 µM in assay [10]. Further, the TGI was determined as 38.5 µM in [1]; 31.3 µM in assay [2]; 19.9 µM in [3]; 12.5 µM in assay [4]; 8.62 µM in assay [5]; 22.2 µM in assay [6]. The TGI came to 21.6 µM in assay [7], 14.2 µM in [8], 6.7 µM in assay [9] and 26.6 µM in assay [10].
On to `c1cc(C2N3CCCN2CC3)ccn1` (centres undefined), for which the TGI was above 100 µM in [1]; above 100 µM in assay [2]; above 100 µM in [3]; above 100 µM in assay [4]; 71 µM in assay [5]; 30.4 µM in assay [6]. Also, the TGI in assay [7], in [8], in assay [9] and in [10] was above 100 µM each time.
As to `O=C(O)CCc1nc(-c2ccccc2)c(-c2ccccc2)o1`, the TGI in assay [1], in [2], in [3], in assay [4], in [5] and in assay [7] was above 100 µM throughout. For the same molecule, the TGI in assay [8], in assay [9] and in [10] was above 100 µM each time.
Turning to `Cc1ccc(C(=O)Nc2ccccc2C(=O)N/N=C(\c2ccccc2)c2ccccn2)cc1`, the GI50 was 0.362 µM in assay [1]; 0.27 µM in assay [2]; 0.302 µM in [3]; 0.211 µM in assay [4]; 1.13 µM in assay [5]; 0.274 µM in [6]. The GI50 in [7] is 0.597 µM; in assay [8], 0.271 µM; in assay [9], 0.208 µM; in [10], 3.58 µM. Besides, the TGI in assay [1], in [2], in assay [3], in [4], in assay [5] and in assay [6] was above 100 µM throughout. Besides, the TGI in [7] was above 100 µM; in assay [8] it was 1.15 µM; in assay [9] it was above 100 µM; in assay [10], above 100 µM.
On to `c1ccc([P+](CCC[P+](c2ccccc2)(c2ccccc2)c2ccccc2)(c2ccccc2)c2ccccc2)cc1`, for which the TGI in assay [1] was above 100 µM; in assay [2], above 100 µM; in [3], above 100 µM; in [4], 83.7 µM and 35.5 µM; in assay [5], > 100 µM and 10.1 µM; in [6] it was above 100 µM. Besides, the TGI in [7] was above 100 µM; in assay [8], 74.1 µM and 38.7 µM; in assay [9], above 100 µM; in [10], above 100 µM. In addition, the GI50 in [2] is 18 µM; in [4], 4.41 µM; in assay [5], 1.27 µM; in assay [6] it was 7.71 µM; in assay [7], 11.2 µM; in assay [8], 6.8 µM. In assay [9], the GI50 is 4.82 µM.
On to `c1cc(-c2cnn3nc(N4CCOCC4)ccc23)nc(NC2CC2)n1`, for which the GI50 in assay [1] is 8.9 µM; in [2], 9.27 µM; in assay [3], 6.23 µM; in assay [4], 8.17 µM; in assay [5], 6.71 µM; in assay [6] it was 8.14 µM. Further, the GI50 in assay [7] was 6.64 µM; in assay [8], 5.76 µM; in [9], 6.48 µM; in assay [10], 7.7 µM. The TGI is above 25 µM in [1]; above 25 µM in [2]; above 25 µM in [3]; above 25 µM in assay [4]; above 25 µM in assay [5]; 24.6 µM in assay [6]. For the same molecule, the TGI in assay [7] was above 23.7 µM; in [8] it was 16.7 µM; in assay [9], 20 µM; in [10], 20.3 µM.
For `COc1cc2c(cc1-c1c(C)noc1C)ncc1[nH]c(=O)n([C@H](C)c3ccccn3)c12`, the GI50 in assay [1] was 5.04 µM; in assay [2], 0.94 µM; in assay [3], 0.352 µM; in assay [4], 1.05 µM; in assay [5] it was 0.124 µM; in assay [6], 11.7 µM. In addition, the GI50 is 0.695 µM in assay [7], 2.77 µM in assay [8], 0.0756 µM in [9] and 0.257 µM in assay [10]. Moreover, the TGI in assay [1] is above 100 µM; in assay [2] it was above 100 µM; in assay [3] it was 20.3 µM; in [4] it was above 47.9 µM; in assay [5], 3.54 µM; in assay [6] it was above 100 µM. The TGI in [7] was above 90.7 µM; in assay [8], above 44 µM; in assay [9], above 100 µM; in assay [10] it was 22 µM.
As for `Cn1c2cc(Cl)ccc2c2ccc3c(c21)C(=O)C=CC3=O`, the TGI in assay [1] is above 55.9 µM; in [2], above 100 µM; in [3], above 100 µM; in assay [4] it was 17.1 µM; in [5], 23.7 µM; in assay [6], above 82.6 µM. Also, the TGI in assay [7] was 63.5 µM; in [8], above 100 µM; in [9], 26.1 µM; in assay [10] it was 56.6 µM.
For the molecule `C/C=C/COc1cc(NC(=S)c2ccoc2C)ccc1OC`, the TGI in assay [1] is above 100 µM; in [2] it was above 100 µM; in assay [3], above 100 µM; in assay [4], above 100 µM; in assay [5] it was 76.7 µM; in assay [6], above 100 µM. Besides, the TGI in assay [7], in [8], in assay [9] and in assay [10] was above 100 µM throughout.
As to `CC(=O)OC1C/C(C)=C/[C@H](O)CC(C)/C=C/[C@@]2(C)CCC(C(C)(C)O)C12` (some centres undefined), the TGI in assay [1], in assay [2], in assay [3], in [4], in assay [5] and in [6] was above 100 µM each time. The TGI in assay [7], in assay [8], in assay [9] and in assay [10] was above 100 µM each time.
On to `OCCCCC#Cc1ccccc1C#Cc1cccs1`, for which the GI50 was 14.3 µM in assay [1]; 13 µM in assay [2]; 13.9 µM in assay [3]; 15 µM in assay [4]; 22 µM in [5]; 15.8 µM in [6]. Also, the GI50 in assay [7] is 15.8 µM; in [8], 13.3 µM; in [9] it was 1.85 µM; in assay [10], 25.3 µM. Besides, the TGI in [1] stood at 27.9 µM; in assay [2], 26.5 µM; in [3], 26.8 µM; in assay [4] it was 28.9 µM; in assay [5], 71 µM; in assay [6] it was 32 µM. Moreover, the TGI in assay [7] came out at 31.1 µM; in assay [8], 26 µM; in assay [9], 14.5 µM; in assay [10] it was 52.9 µM.
As for `CCCCCC/C=C\CCCCCCCCCc1c(O)c(OC)cc(O)c1CN(C)C`, the TGI is 3.26 µM in assay [1]; 28.9 µM in [2]; above 100 µM in assay [3]; 19 µM in [4]; 7.62 µM in assay [5]; 28.2 µM in [7]. Besides, the TGI worked out at 18.6 µM in assay [8], 4.23 µM in assay [9] and 28.8 µM in [10].
`C=C(CN(CCN1CCOCC1)CC(=C)c1ccc(C(=O)Nc2ccccc2N)cc1)c1ccc(C(=O)Nc2ccccc2N)cc1`: the GI50 is 1.07 µM in [1]; 9.94 µM in assay [2]; 1.07 µM in [3]; 10.1 µM in [4]; 2.68 µM in assay [5]; 8.17 µM in assay [6]. Besides, the GI50 is 6.86 µM in assay [7], 8.38 µM in [8], 11.7 µM in assay [9] and 4.44 µM in assay [10]. In addition, the TGI in [1] was 6.65 µM; in assay [2], above 50 µM; in [3] it was 6.47 µM; in assay [4] it was 39.8 µM; in assay [5], above 50 µM; in [6] it was 25 µM. Besides, the TGI in assay [7] is 16.2 µM; in assay [8], 16.7 µM; in [9], above 50 µM; in assay [10], 12 µM.
As to `COc1cc(C(=O)/C=C/c2c(-c3cccs3)nc3ccccn23)cc(OC)c1OC`, the GI50 in [1] was 2.31 µM; in assay [2], 2.88 µM; in [3] it was 1.87 µM; in assay [4], 2.44 µM; in [5] it was 1.23 µM; in assay [6], 2.37 µM. Besides, the GI50 was 1.33 µM in assay [8], 1.34 µM in assay [9] and 3.78 µM in assay [10]. For the same molecule, the TGI worked out at 7.07 µM in assay [1]; 6.75 µM in assay [2]; 4.9 µM in [3]; 5.36 µM in assay [4]; 3.72 µM in assay [5]; 8.47 µM in assay [6]. The results for the TGI in [8], in assay [9] and in assay [10] were 2.72 µM, above 100 µM and 25.4 µM, respectively.
